Measurements taken from US12427139B2, “Applications for nicardipine in preparing anti-lung cancer products” (SHANGHAI JIAO TONG UNIVERSITY, priority 2015, dated 2025).

How the values were obtained:
Type in all cases: cell-based
[1] = system: NCI-H524 non-small cell lung cancer cells; assay: CellTiter-Glo luminescent cell viability assay, NCI-H524 drug screening plate; conditions: for IC50: NCI-H524 cells, CellTiter-Glo
Procedure: (§1) In example 1, CELLTITER-GLO was used to test nicardipine against non-small cell lung cancer. n) NCI-H524 cells and NCI-H446 cells were handled as described above, and NCI-H524 96-well cell culture plates and NCI-H446 96-well cell culture plates were obtained, respectively. The complete medium for NCI-H524 cells was RPMI-1640 (a live product), Cat #A1049101, with a cells/well density of 16000. a) DMSO was used to dilute the analyte nicardipine to 20 mM for use. b) 79 μL of the 20 mM analyte prepared in step a) was added to the first well in the first row of the dilution plate, and then 54 μL of DMSO solution was added to the second through ninth wells of the first row. 25 μL of solution was aspirated from the first to the second well, and after mixing well 25 μL of solution was aspirated from the second to the third well, and this was repeated until the 9th well in order to ensure that 3.16 dilution of the medication would be carried out one-by-one. b) 95 μl of cell-specific complete medium was added to the working plate, each medication to 9 wells. […] Testing • a) Before testing, the NCI-H524 96-well drug screening plate and the NCI-H446 96-well drug screening plate described in 3 above were stabilized to room temperature for 20-30 minutes. • b) An inverted microscope was used to observe the conditions of each group of cells in the culture plate and their death patterns, and any abnormal conditions were noted and retested. • c) 100 μl of CellTiter-Glo reagent (prepared as described in 1 above) was added to all drug screening plates and mixed evenly. • d) It was thoroughly oscillated in a 96-well microplate oscillator for 2 minutes to allow the cells to undergo full lysis. • e) It was stored away from light at room temperature for 15 minutes before carrying out luminescent signal detection to ensure signal stability. • f) An EnSpire multi-function plate reader was used at 570 nm to read the luminescent signals. • g) Data was processed and analyzed.

[2] = system: NCI-H446 small-cell lung cancer cells; assay: CellTiter-Glo luminescent cell viability assay, NCI-H446 drug screening plate; conditions: for IC50: NCI-H446 cells, CellTiter-Glo
Procedure: as §1, with “for NCI-H446” for “for NCI-H524”, “of 8000.” for “of 16000.”

[3] = system: SNU-449 human hepatoma cells; assay: CellTiter-Glo luminescent cell viability assay, SNU-449 cells (same method)
Procedure: (§2) In the examples below, the product sources for the NCI-H524 non-small cell lung cancer cells, the NCI-H446 small-cell lung cancer cells, the SNU-449 human hepatoma cells, and the NCI-H810 human lung cancer cells, are as follows: c) The NCI-H524 96 well cell plates and the NCI-H446 96-well cell plates prepared in step 1 were removed from the incubator, and 10 μl of the cell culture media (10× final concentration) with varying drug concentrations as described in b) above was added to the NCI-H524 96-well cell culture and the NCI-H446 96-well cell culture plate row-by-row as shown in FIG. 1. It was placed into a CO2 incubator at 37° C. for 72 hours, obtaining the NCI-H524 96-well drug screening plate and the NCI-H446 96-well drug screening plate. • a) The CellTiter-Glo reagent buffer was thawed before using and stabilized to room temperature for use. • b) The CellTiter-Glo reagent frozen substrate was thawed before using and stabilized to room temperature for use. • c) 100 ml of stabilized CellTiter-Glo buffer was added to the container with CellTiter-Glo reagent frozen substrate to adequately resuspend it to form an enzyme/substrate mixture, also referred to as the CellTiter-Glo assay reagent. • d) It was gently mixed and vortexed and inverted multiple times to achieve a uniform solution. In general, the CellTiter-Glo substrate reagent will adequately dissolve within 1 minute. […]

[4] = system: NCI-H810 human lung cancer cells; assay: CellTiter-Glo luminescent cell viability assay, NCI-H810 cells (same method)
Procedure: as §2

## COC(=O)C1=C(C)NC(C)=C(C(=O)OCCN(C)Cc2ccccc2)C1c1cccc([N+](=O)[O-])c1 (centres unmarked) [nicardipine]
[1]; Homo sapiens, NCI-H524, 72 h
  IC50: 18.6 µM
[1]; Homo sapiens, FIG. 2, nicardipine sensitivity to non-small cell lung cancer (NCI-H524), 72 hours
  EC50: 20.3 µM
[1]; 72 hours
  IC50: 18.6 µM
[2]; Homo sapiens, NCI-H446, 72 h
  IC50: 18.4 µM
[2]; Homo sapiens, FIG. 3, nicardipine sensitivity to small cell lung cancer (NCI-H446), 72 hours
  EC50: 18 µM
[2]; 72 hours
  IC50: 18.4 µM
[3]
  IC50: ≥ 100 µM
[4]
  IC50: ≥ 100 µM
